SMILES strings stand for the structures. Where a name gives a salt, the structure may show the parent alone.

For 10 compounds, IC50 results are on record in US8637525B2, “Compounds for the reduction of beta-amyloid production” (Bristol-Myers Squibb Company, priority 2009, dated 2014).

The test system of one test is Aβ1-42 production. The test can be described thus: Cellular assay for inhibition of Aβ1-42 production (H4 APP751 SWE clone 8.20). Conditions: 19 h, H4 APP751 SWE clone 8.20 cells, 19 h incubation; class symbols; read-out: Activity Rating (Aβ42 cellular IC50). The class given is cell-based. Summed up:
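Secreted peptide was quantified with a two-antibody homogeneous format combining Wallac-labelled 565, which recognises the Aβ42 end, and APC-labelled 26D6 at 0.8 and 75 ng/well respectively. Antibodies were diluted in 40 mM Tris-HCl, pH 7.4, 0.2% BSA and left overnight at 4 °C after a 19 h compound incubation.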
For orientation: IC50 means the concentration needed to halve the response being measured. In the case of `COc1cc(Nc2nc3c(c(N4CC[C@@H](F)C4)n2)CCN(S(C)(=O)=O)C3c2ccc(F)cc2)ccc1-n1cnc(Cl)c1` (stereo partly shown) [Example 174], the IC50 lay within 10 to 100 nM.

Turning to `CCNc1nc(Nc2ccc(-n3ncnc3C)c(F)c2)nc2c1COCC2c1ccc(F)c(F)c1` (racemic) [Example 116, 8-(3,4-difluorophenyl)-N4-ethyl-N2-(3-fluoro-4-(5-methyl-1H-1,2,4-triazol-1-yl)phenyl)-7,8-dihydro-5H-pyrano[4,3-d]pyrimidine-2,4-diamine, TFA], the half-inhibitory concentration (IC50) lay within 10 to 100 nM. On the same count and under the same terms, under `COc1cc(Nc2nc(NS(C)(=O)=O)c3c(n2)C(c2ccccc2)CC3)ccc1-n1cnc(Cl)c1` (stereo not shown) [Example 211, N-(2-(4-(4-chloro-1H-imidazol-1-yl)-3-methoxyphenylamino)-7-phenyl-6,7-dihydro-5H-cyclopenta[d]pyrimidin-4-yl)-N-methanesulfonamide] stands 1.5 to 9.9 nM; under `CNc1nc(Nc2ccc(-n3cnc(Cl)c3)c(OC)c2)nc2c1COCC2c1ccc(Cl)cc1` (stereo not shown) [Example 64, N^2-(4-(4-chloro-1H-imidazol-1-yl)-3-methoxyphenyl)-8-(4-chlorophenyl)-N^4-methyl-7,8-dihydro-5H-pyrano[4,3-d]pyrimidine-2,4-diamine], 10 to 100 nM.

Still in this test, the particulars now being: 19 h, H4 APP751 SWE clone 8.20 cells, 19 h incubation; read-out: Activity Rating (Aβ42 cellular IC50), numeric value.
As for `CCNc1nc(Nc2ccc(-n3cnc(Cl)c3)c(OC)c2)nc2c1CCOC2c1ccc(F)cc1` (stereo not shown) [Example 88A, N2-(4-(4-chloro-1H-imidazol-1-yl)-3-methoxyphenyl)-N4-ethyl-8-(4-fluorophenyl)-6,8-dihydro-5H-pyrano[3,4-d]pyrimidine-2,4-diamine], the IC50 turned out to be 4.5 nM. Same read-out and setting: under `COc1cc(Nc2nc3c(c(N4CC(Cl)C4)n2)CCC3c2ccccc2)ccc1-n1cnc(Cl)c1` (stereo not shown) [Example 181B, N-(4-(4-chloro-1H-imidazol-1-yl)-3-methoxyphenyl)-4-(3-chloroazetidin-1-yl)-7-phenyl-6,7-dihydro-5H-cyclopenta[d]pyrimidin-2-amine] stands 50 nM.

The same test, now with this note: H4 APP751 SWE clone 8.20 cells, 19 h incubation; class symbols; read-out: Activity Rating (Aβ42 cellular IC50).
As for `COc1cc(Nc2nc3c(c(N(C)C)n2)COCC3c2ccccc2)ccc1-n1cnc(Cl)c1` (single isomer, unassigned) [Example 53A, N^2-(4-(4-Chloro-1H-imidazol-1-yl)-3-methoxyphenyl)-N^4,N^4-dimethyl-8-phenyl-7,8-dihydro-5H-pyrano[4,3-d]pyrimidine-2,4-diamine], the IC50 lay within 1.5 to 9.9 nM.

In the case of `COc1cc(Nc2nc3c(c(N4CC=C(F)CC4)n2)CCC3c2ccc(F)cc2)ccc1-n1cnc(Cl)c1` (stereo not shown) [Example 40B, N-(4-(4-chloro-1H-imidazol-1-yl)-3-methoxyphenyl)-4-(4-fluoro-5,6-dihydropyridin-1(2H)-yl)-7-(4-fluorophenyl)-6,7-dihydro-5H-cyclopenta[d]pyrimidin-2-amine], the IC50 lay in the range of 100 to 1000 nM. Still for that read-out and setting: under `COc1cc(Nc2nc3c(c(N4CCC4)n2)CCC3c2ccccc2)ccc1-n1cnc(Cl)c1` (single isomer, unassigned) [Example 6B, 4-(azetidin-1-yl)-N-(4-(4-chloro-1H-imidazol-1-yl)-3-methoxyphenyl)-7-phenyl-6,7-dihydro-5H-cyclopenta[d]pyrimidin-2-amine] stands 10 to 100 nM; under `COc1cc(Nc2nc(N[C@H](C)C3CC3)c3c(n2)C(c2ccc(F)cc2)CC3)ccc1-n1cnc(Cl)c1` (single isomer, unassigned) [Example 49B], 10 to 100 nM.
